According to paper PMC4607890, “The identification of novel Mycobacterium tuberculosis DHFR inhibitors and the investigation of their binding preferences by using molecular modelling” (Scientific Reports, 2015):

Tests used:
mt-DHFR = target: T1, mt-DHFR (Mycobacterium tuberculosis, UniProt P9WNX1); assay: biochemical; assay type: biochemical; settings: for Ratio h-DHFR/mt-DHFR: ratio of IC50 values; for potency on mt-DHFR compared to h-DHFR: in vitro enzyme assays
T1 construct: made in house

h-DHFR = target: T2, h-DHFR (Homo sapiens, UniProt P00374); assay: in vitro enzyme assay, recombinant h-DHFR (NADPH oxidation at 340 nm); assay type: biochemical; settings: recombinant enzyme 20 nM, 40 μM NADPH, 40 μM dihydrofolate, pH 7.0, 25 °C
T2 construct: made in house
T2 sequence (P00374 1-187): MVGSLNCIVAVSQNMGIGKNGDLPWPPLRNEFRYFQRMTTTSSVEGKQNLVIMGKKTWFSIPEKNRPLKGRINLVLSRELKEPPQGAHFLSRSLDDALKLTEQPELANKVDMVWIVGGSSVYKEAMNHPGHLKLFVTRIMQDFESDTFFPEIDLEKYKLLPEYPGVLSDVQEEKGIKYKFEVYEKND

[1] = system: M. tuberculosis H37Ra (ATCC 25177); assay: Microbroth culture for bacteriostatic and bactericidal activity (OD readings, subculture on 7H10 agar); assay type: cell-based, Mycobacterium tuberculosis; settings: Mtb H37Ra; for growth inhibition on the test strain: overall
Procedure: The anti-mycobacterial activity of the compounds was tested by the measurement of OD readings and agar plate cultures. The test strain used was a stock culture of M. tuberculosis H37Ra (ATCC 25177) stored at −80 °C. Prior to testing, the stock culture was thawed and grown on Middlebrook 7H10 agar (Difco, USA) to check for viability and purity. To prepare the inoculum, a suspension of the culture in Middlebrook 7H9 broth (Difco, USA) was adjusted to a turbidity equivalent to McFarland standard no.1 and further diluted to a final concentration of approximately 10^5 cfu/ml. The compounds were dissolved in DMSO and diluted in 1% DMSO in 7H9 broth to obtain 100 μg/ml, 50 μg/ml, 10 μg/ml, 5 μg/ml 1 μg/ml and 0.1 μg/ml of compound. Each dilution was pipetted in 150 μl duplicates into a sterile 96-well microtitre plate. Three controls were set up with (a) 1% DMSO in 7H9 broth (b) 7H9 broth without DMSO and (c) p-amino salicylic acid (PAS) at 4 μg/ml (26.12 μM) in 7H9 broth with 1% DMSO. All wells were then inoculated with 10 μl of the mycobacterial culture at 10^5 cfu/ml, sealed with parafilm and incubated at 36 °C for 28 days. OD readings (at 630 nm wavelength) were taken daily using TECAN spectrophotometer with Magellan software version 7.1. In addition, on day 14 and day 28, 10 μl was removed from each well for subculturing on compound-free 7H10 agar plates which were incubated up to six weeks at 36 °C. The number, size and time of appearance of colonies in each subculture was recorded. A random sample of colonies was stained for acid-fastness to exclude non-mycobacterial contamination. […] Compounds showing less increase in OD readings than the no-compound controls but positive growth in the subcultures were deemed to have bacteriostatic activity.

mt-DHFR against h-DHFR = system: mt-DHFR against h-DHFR; set-up: method as in PMID 17451962; settings: TB5 Saccharomyces cerevisiae carrying DHFR genes; cited from earlier work
[2] = system: human DHFR (h-DHFR) and mt-DHFR; settings: cited from earlier work
[3] = compound concentration 0.1 μg/ml
[4] = compound concentration 10 μg/ml
[5] = compound concentration 50 μg/ml
[6] = compound concentration 100 μg/ml

T1 sequence (P9WNX1 whole entry): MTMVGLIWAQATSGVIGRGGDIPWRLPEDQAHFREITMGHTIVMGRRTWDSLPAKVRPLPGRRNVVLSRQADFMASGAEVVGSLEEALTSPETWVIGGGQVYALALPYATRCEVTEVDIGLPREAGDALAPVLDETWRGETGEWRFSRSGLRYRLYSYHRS

SMILES | IC50 (mt-DHFR) [nM] | Ratio h-DHFR/mt-DHFR (mt-DHFR) | IC50 (h-DHFR) [nM] | colony counts after four weeks of exposure [1, 3] | colony counts after four weeks of exposure ([1]; compound concentration 1 μg/ml) | colony counts after four weeks of exposure ([1]; compound concentration 5 μg/ml) | colony counts after four weeks of exposure [1, 4] | colony counts after four weeks of exposure [1, 5] | colony counts after four weeks of exposure [1, 6] | other results
Nc1nc(N)c(-c2ccc(Cl)c(Cl)c2)c(COc2ccc([N+](=O)[O-])cc2)n1 [Compound 1] | 130 | 1 | 130 | +++ | +++ | +++ | +++ | +++ | +++ | 
Nc1nc(N)c(-c2ccc(Cl)c(Cl)c2)c(COc2cccc3ccccc23)n1 [Compound 2] | 110 | 0.64 | 70 | +++ | +++ | +++ | +++ | ++ (++, 11–100 colonies) | ++ (++, 11–100 colonies) | 
Nc1nc(N)c(-c2cccc(C(F)(F)F)c2)c(Cc2cccc(C(F)(F)F)c2)n1 [Compound 3] | 180 | 0.75 | 135 | +++ | +++ | +++ | +++ | ++ (++, 11–100 colonies) | + (+, 1–10 colonies) | 
Nc1ccc(C(=O)Nc2ccc(OCc3nc(N)nc(N)c3-c3ccc(Cl)cc3)cc2)cc1 [Compound 4] | 2600 | 0.96 | 2500 | +++ | +++ | +++ | +++ | ++ (++, 11–100 colonies) |  | activity compared with PAS (4 μg/ml) ([1]; 100 μg/ml): better activity than PAS; bactericidal activity ([1]; 100 μg/ml): bactericidal activity
CC(=O)Nc1cccc(OCc2cccc(N3C(=N)NC(=N)NC3(C)C)c2)c1 [Compound 5] |  |  |  | +++ | +++ | +++ | +++ | +++ | +++ | 
Nc1nc(N)c2c(ccc3c2ccn3Cc2cccc([N+](=O)[O-])c2)n1 [Compound 6] | 6 | 5.5 | 33 | +++ | +++ | +++ | ++ (++, 11–100 colonies) |  |  | inhibition of mt-DHFR (mt-DHFR; in vitro enzyme assay): most potent inhibitor of mt-DHFR; potency on mt-DHFR compared to h-DHFR (mt-DHFR): more potent inhibitors of mt-DHFR compared to h-DHFR; activity compared with PAS (4 μg/ml, 26.12 μM) ([1]; 10 μg/ml (25.37 μM)): same activity as PAS; colony count ([1]; 10 μg/ml (25.37 μM)): notable reduction in colony count; bactericidal activity ([1]; 50 μg/ml): bactericidal; activity compared with PAS (4 μg/ml) ([1]; 100 μg/ml): better activity than PAS; bactericidal activity ([1]; 100 μg/ml): bactericidal activity; growth inhibition on the test strain [1]: strongest bactericidal activity
Nc1nc(N)c2cc(S(=O)(=O)c3ccc(Cl)cc3)ccc2n1 [Compound 7] | 63 | 6.98 | 440 | +++ | +++ | +++ | +++ | +++ | +++ | potency on mt-DHFR compared to h-DHFR (mt-DHFR): more potent inhibitors of mt-DHFR compared to h-DHFR; growth inhibition on the test strain [1]: least growth inhibition, affecting the colony size but not the colony count
Nc1nc(N)c2cc(Sc3ccc(Cl)cc3)ccc2n1 [Compound 8] | 40 | 2.5 | 100 | +++ | +++ | +++ | +++ | +++ |  | potency on mt-DHFR compared to h-DHFR (mt-DHFR): more potent inhibitors of mt-DHFR compared to h-DHFR; activity compared with PAS (4 μg/ml) ([1]; 100 μg/ml): better activity than PAS; bactericidal activity ([1]; 100 μg/ml): bactericidal activity; growth in the 14-day subculture ([1]; after exposure to 50 μg/ml): did not grow; growth in the 28-day subculture ([1]; after exposure to 50 μg/ml): formed abundant colonies
Nc1nc(N)c(-c2ccccc2)c(CC[C@@H](O)[C@@H](O)CO)n1 [El-7a] |  |  |  |  |  |  |  |  |  | selectivity for inhibition effects on mt-DHFR against h-DHFR (mt-DHFR against h-DHFR): notable selectivity
CN(Cc1cnc2nc(N)nc(N)c2n1)c1ccc(C(=O)N[C@@H](CCC(=O)O)C(=O)O)cc1 [MTX, Methotrexate] |  |  |  |  |  |  |  |  |  | selectivity of binding h-DHFR vs mt-DHFR [2]: without any significant selectivity
Nc1ccc(C(=O)O)c(O)c1 [PAS, p-amino salicylic acid, reference compound] |  |  |  |  |  |  |  |  |  | delay in the appearance of colonies ([1]; PAS 4 μg/ml (26.12 μM)): two-week delay; growth of colonies on 7H10 agar ([1]; PAS 4 μg/ml (26.12 μM)): only scanty growth; reduction in growth ([1]; PAS 4 μg/ml (26.12 μM)): more than two-log reduction in growth; colony counts after four weeks of exposure ([1]; PAS control at 4 μg/ml (26.12 μM)): ++ (++, 11–100 colonies)
